Reference: PubChem BioAssay (NCI)
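Interpolation was linear, between the two tested concentrations surrounding the appropriate level; five concentrations were tested over 48 hours in 96-well plates. At the TGI there is no net growth.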

Legend:
Assay in all cases: NCI tumour cell line growth inhibition, 48 h
SNB-19 CNS = test system: SNB-19 CNS
M19-MEL melanoma = test system: M19-MEL melanoma
OVCAR-5 ovarian = test system: OVCAR-5 ovarian
HOP-92 NSCLC = test system: HOP-92 NSCLC
UACC-257 melanoma = test system: UACC-257 melanoma
NCI-H23 lung = test system: NCI-H23 lung
NCI-H522 lung = test system: NCI-H522 lung
MOLT-4 leukemia = test system: MOLT-4 leukemia
OVCAR-3 ovarian = test system: OVCAR-3 ovarian
HL-60(TB) leukemia = test system: HL-60(TB) leukemia
DMS 114 small cell lung = test system: DMS 114 small cell lung
A549 NSCLC = test system: A549 NSCLC
SF-539 CNS = test system: SF-539 CNS
HT29 colon = test system: HT29 colon
SK-OV-3 ovarian = test system: SK-OV-3 ovarian
HOP-62 NSCLC = test system: HOP-62 NSCLC
M14 melanoma = test system: M14 melanoma
SF-268 CNS = test system: SF-268 CNS
LOX IMVI melanoma = test system: LOX IMVI melanoma
DLD-1 colon = test system: DLD-1 colon
HCC-2998 colon = test system: HCC-2998 colon
CCRF-CEM leukemia = test system: CCRF-CEM leukemia
MALME-3M melanoma = test system: MALME-3M melanoma
RXF-631 renal = test system: RXF-631 renal
EKVX NSCLC = test system: EKVX NSCLC
UO-31 renal = test system: UO-31 renal
SR leukemia = test system: SR leukemia
RXF 393 renal = test system: RXF 393 renal
SF-295 CNS = test system: SF-295 CNS
786-0 renal = test system: 786-0 renal
DMS 273 small cell lung = test system: DMS 273 small cell lung
SNB-78 CNS = test system: SNB-78 CNS
OVCAR-8 ovarian = test system: OVCAR-8 ovarian
CAKI-1 renal = test system: CAKI-1 renal
XF 498 CNS = test system: XF 498 CNS
SK-MEL-2 melanoma = test system: SK-MEL-2 melanoma
LXFL 529 NSCLC = test system: LXFL 529 NSCLC
U251 CNS = test system: U251 CNS
NCI-H226 lung = test system: NCI-H226 lung
SN12C renal = test system: SN12C renal
HCT-116 colon = test system: HCT-116 colon
COLO 205 colon = test system: COLO 205 colon
ACHN renal = test system: ACHN renal
HOP-18 NSCLC = test system: HOP-18 NSCLC
A498 renal = test system: A498 renal
OVCAR-4 ovarian = test system: OVCAR-4 ovarian
UACC-62 melanoma = test system: UACC-62 melanoma
SK-MEL-28 melanoma = test system: SK-MEL-28 melanoma
SNB-75 CNS = test system: SNB-75 CNS
SK-MEL-5 melanoma = test system: SK-MEL-5 melanoma
KM12 colon = test system: KM12 colon
NCI-H460 lung = test system: NCI-H460 lung
TK-10 renal = test system: TK-10 renal
RPMI-8226 leukemia = test system: RPMI-8226 leukemia
HCT-15 colon = test system: HCT-15 colon
KM20L2 colon = test system: KM20L2 colon
IGROV1 ovarian = test system: IGROV1 ovarian
SW-620 colon = test system: SW-620 colon
K-562 leukemia = test system: K-562 leukemia

**Q.** Which TGI (SNB-19 CNS) does the source give for `COC(=O)C(CCCCCCCC(C(=O)OC)c1nc2n(c1O)C(=N)N=N2)c1nc2n(c1O)C(=N)N=N2` (configuration not stated) here?
**A.** The TGI was over 100 µM.

**Q.** What about the TGI (M19-MEL melanoma) of the same compound?
**A.** Its TGI is over 68.3 µM.

**Q.** And the TGI (OVCAR-5 ovarian)?
**A.** Its TGI is over 100 µM.

**Q.** What about the TGI (HOP-92 NSCLC) of the same compound?
**A.** The TGI was over 100 µM.

**Q.** And the TGI (UACC-257 melanoma)?
**A.** Its TGI is over 100 µM.

**Q.** And the TGI (NCI-H23 lung)?
**A.** Its TGI is over 100 µM.

**Q.** And the TGI (NCI-H522 lung)?
**A.** The TGI was over 100 µM.

**Q.** What about the TGI (MOLT-4 leukemia) of the same compound?
**A.** Its TGI is over 100 µM.

**Q.** And the TGI (OVCAR-3 ovarian)?
**A.** Its TGI is over 100 µM.

**Q.** And the TGI (HL-60(TB) leukemia)?
**A.** Its TGI is over 100 µM.

**Q.** What about the TGI (DMS 114 small cell lung) of the same compound?
**A.** Its TGI is over 100 µM.

**Q.** What about the TGI (A549 NSCLC) of the same compound?
**A.** Its TGI is over 100 µM.

**Q.** And the TGI (SF-539 CNS)?
**A.** Its TGI is over 100 µM.

**Q.** And the TGI (HT29 colon)?
**A.** The TGI was over 100 µM.

**Q.** What about the TGI (SK-OV-3 ovarian) of the same compound?
**A.** Its TGI is over 100 µM.

**Q.** And the TGI (HOP-62 NSCLC)?
**A.** Its TGI is over 100 µM.

**Q.** What about the TGI (M14 melanoma) of the same compound?
**A.** The TGI was over 100 µM.

**Q.** And the TGI (SF-268 CNS)?
**A.** Its TGI is over 100 µM.

**Q.** And the TGI (LOX IMVI melanoma)?
**A.** The TGI was over 100 µM.

**Q.** What about the TGI (DLD-1 colon) of the same compound?
**A.** Its TGI is over 100 µM.

**Q.** What about the TGI (HCC-2998 colon) of the same compound?
**A.** Its TGI is over 100 µM.

**Q.** What about the TGI (CCRF-CEM leukemia) of the same compound?
**A.** Its TGI is over 100 µM.

**Q.** What about the TGI (MALME-3M melanoma) of the same compound?
**A.** The TGI was over 100 µM.

**Q.** And the TGI (RXF-631 renal)?
**A.** Its TGI is over 100 µM.

**Q.** What about the TGI (EKVX NSCLC) of the same compound?
**A.** Its TGI is over 100 µM.

**Q.** And the TGI (UO-31 renal)?
**A.** The TGI was over 100 µM.

**Q.** And the TGI (SR leukemia)?
**A.** Its TGI is over 100 µM.

**Q.** What about the TGI (RXF 393 renal) of the same compound?
**A.** The TGI was over 100 µM.

**Q.** And the TGI (SF-295 CNS)?
**A.** Its TGI is over 100 µM.

**Q.** And the TGI (786-0 renal)?
**A.** The TGI was over 100 µM.

**Q.** What about the TGI (DMS 273 small cell lung) of the same compound?
**A.** The TGI was over 100 µM.

**Q.** What about the TGI (SNB-78 CNS) of the same compound?
**A.** The TGI was over 100 µM.

**Q.** And the TGI (OVCAR-8 ovarian)?
**A.** Its TGI is over 100 µM.

**Q.** And the TGI (CAKI-1 renal)?
**A.** The TGI was over 100 µM.

**Q.** And the TGI (XF 498 CNS)?
**A.** The TGI was over 100 µM.

**Q.** What about the TGI (SK-MEL-2 melanoma) of the same compound?
**A.** Its TGI is over 100 µM.

**Q.** What about the TGI (LXFL 529 NSCLC) of the same compound?
**A.** The TGI was over 100 µM.

**Q.** And the TGI (U251 CNS)?
**A.** Its TGI is over 100 µM.

**Q.** What about the TGI (NCI-H226 lung) of the same compound?
**A.** Its TGI is over 100 µM.

**Q.** And the TGI (SN12C renal)?
**A.** The TGI was over 100 µM.

**Q.** And the TGI (HCT-116 colon)?
**A.** The TGI was over 100 µM.

**Q.** And the TGI (COLO 205 colon)?
**A.** The TGI was over 100 µM.

**Q.** What about the TGI (ACHN renal) of the same compound?
**A.** Its TGI is over 100 µM.

**Q.** And the TGI (HOP-18 NSCLC)?
**A.** The TGI was over 100 µM.

**Q.** And the TGI (A498 renal)?
**A.** The TGI was over 100 µM.

**Q.** What about the TGI (OVCAR-4 ovarian) of the same compound?
**A.** Its TGI is over 100 µM.

**Q.** And the TGI (UACC-62 melanoma)?
**A.** The TGI was over 100 µM.

**Q.** What about the TGI (SK-MEL-28 melanoma) of the same compound?
**A.** Its TGI is over 100 µM.

**Q.** What about the TGI (SNB-75 CNS) of the same compound?
**A.** The TGI was over 85.6 µM.

**Q.** And the TGI (SK-MEL-5 melanoma)?
**A.** Its TGI is over 100 µM.

**Q.** And the TGI (KM12 colon)?
**A.** Its TGI is over 100 µM.

**Q.** What about the TGI (NCI-H460 lung) of the same compound?
**A.** The TGI was over 100 µM.

**Q.** And the TGI (TK-10 renal)?
**A.** Its TGI is over 100 µM.

**Q.** What about the TGI (RPMI-8226 leukemia) of the same compound?
**A.** The TGI was over 100 µM.

**Q.** What about the TGI (HCT-15 colon) of the same compound?
**A.** The TGI was over 100 µM.

**Q.** What about the TGI (KM20L2 colon) of the same compound?
**A.** The TGI was over 100 µM.

**Q.** And the TGI (IGROV1 ovarian)?
**A.** The TGI was over 100 µM.

**Q.** What about the TGI (SW-620 colon) of the same compound?
**A.** The TGI was over 100 µM.

**Q.** Which results are given for `CC1NOC(=O)C1N=Nc1ccccc1Br` (configuration not stated)?
**A.** TGI (SNB-19 CNS): > 100 µM; TGI (M19-MEL melanoma): 35.8 µM; TGI (OVCAR-5 ovarian): > 100 µM; TGI (HOP-92 NSCLC): 52.2 µM; TGI (UACC-257 melanoma): 44 µM; TGI (NCI-H23 lung): 49.1 µM; TGI (NCI-H522 lung): 33.8 µM; TGI (MOLT-4 leukemia): 67 µM; TGI (OVCAR-3 ovarian): 43.8 µM; TGI (HL-60(TB) leukemia): 40.8 µM; TGI (DMS 114 small cell lung): 35.7 µM; TGI (A549 NSCLC): 69 µM; TGI (SF-539 CNS): 51.2 µM; TGI (HT29 colon): > 100 µM; TGI (SK-OV-3 ovarian): 99 µM; TGI (HOP-62 NSCLC): > 100 µM; TGI (M14 melanoma): 43.3 µM; TGI (SF-268 CNS): 66 µM; TGI (LOX IMVI melanoma): > 100 µM; TGI (DLD-1 colon): > 100 µM; TGI (HCC-2998 colon): > 100 µM; TGI (K-562 leukemia): 52.8 µM; TGI (CCRF-CEM leukemia): 74.2 µM; TGI (MALME-3M melanoma): 50.5 µM; TGI (RXF-631 renal): > 100 µM; TGI (EKVX NSCLC): 80.3 µM; TGI (UO-31 renal): 33.1 µM; TGI (SR leukemia): 58.2 µM; TGI (RXF 393 renal): 32 µM; TGI (SF-295 CNS): > 100 µM; TGI (786-0 renal): 39.8 µM; TGI (DMS 273 small cell lung): > 100 µM; TGI (SNB-78 CNS): 88.8 µM; TGI (OVCAR-8 ovarian): 44.9 µM; TGI (CAKI-1 renal): 38.4 µM; TGI (XF 498 CNS): 40 µM; TGI (SK-MEL-2 melanoma): 36.7 µM; TGI (LXFL 529 NSCLC): 31.2 µM; TGI (U251 CNS): 46.1 µM; TGI (NCI-H226 lung): 81.2 µM; TGI (SN12C renal): 59.5 µM; TGI (HCT-116 colon): 92.8 µM; TGI (COLO 205 colon): 35.7 µM; TGI (ACHN renal): > 100 µM; TGI (HOP-18 NSCLC): > 100 µM; TGI (A498 renal): 51.3 µM; TGI (OVCAR-4 ovarian): > 100 µM; TGI (UACC-62 melanoma): 48.1 µM; TGI (SK-MEL-28 melanoma): 79.8 µM; TGI (SNB-75 CNS): 64 µM; TGI (SK-MEL-5 melanoma): 29.1 µM; TGI (KM12 colon): 44.8 µM; TGI (NCI-H460 lung): 57.9 µM; TGI (TK-10 renal): 57.4 µM; TGI (RPMI-8226 leukemia): 91.6 µM; TGI (HCT-15 colon): 84.8 µM; TGI (KM20L2 colon): > 100 µM; TGI (IGROV1 ovarian): > 100 µM; TGI (SW-620 colon): 30.9 µM
